Assay results from BindingDB's records for doi:10.1016/s0960-894x(01)00011-7 (Institute, 2001).

Key:
[1] = Inhibitory activity against non-nucleoside reverse transcriptase inhibitors (NNRTI) -resistant HIV-1 strain A17 with a Y181C mutation in RT (reverse transcriptase)
[2] = as above; remark: listed apart in the source
[3] = Inhibitory activity against non-nucleoside reverse transcriptase inhibitors (NNRTI) -resistant HIV-1 strain A17 with a Y181C mutation in reverse transcriptase

Structure (SMILES) | IC50 [1] [nM] | IC50 [2] [nM] | also measured
CCC(NC(=S)Nc1nccs1)c1ccccc1 (stereo not given) [1-(1-Phenyl-propyl)-3-thiazol-2-yl-thiourea] | 2100 |  | 
S=C(NCCC1=CCCCC1)Nc1nccs1 [1-(2-Cyclohex-1-enyl-ethyl)-3-thiazol-2-yl-thiourea] |  | 900 | 
S=C(NCCOc1ccccc1)Nc1nccs1 [1-(2-Phenoxy-ethyl)-3-thiazol-2-yl-thiourea] |  | 4400 | 
S=C(NCCc1cccs1)Nc1ccc(Br)cn1 [1-(5-Bromo-pyridin-2-yl)-3-(2-thiophen-2-yl-ethyl)-thiourea] | 48 |  | 
Oc1ccc(CCNC(=S)Nc2ccc(Br)cn2)cc1 [1-(5-Bromo-pyridin-2-yl)-3-[2-(4-hydroxy-phenyl)-ethyl]-thiourea] | 70 |  | 
S=C(NCC12CC3CC(CC(C3)C1)C2)Nc1nccs1 [1-Adamantan-1-ylmethyl-3-thiazol-2-yl-thiourea] |  | 600 | 
S=C(NCc1ccco1)Nc1nccs1 [1-Furan-2-ylmethyl-3-thiazol-2-yl-thiourea] |  | 2000 | 
Cc1ccc(CCNC(=S)Nc2nccs2)cc1 [1-Thiazol-2-yl-3-(2-p-tolyl-ethyl)-thiourea] |  | 3900 | 
S=C(NCCc1cccs1)Nc1nccs1 [1-Thiazol-2-yl-3-(2-thiophen-2-yl-ethyl)-thiourea] |  |  | IC50 [3]: > 100 µM
S=C(NCCc1c[nH]c2ccccc12)Nc1nccs1 [1-[2-(1H-Indol-3-yl)-ethyl]-3-thiazol-2-yl-thiourea] |  | 2200 | 
